According to patent US20250084097A1, “MACROCYCLIC AMIDE COMPOUNDS AND APPLICATION THEREOF” (Medshine Discovery Inc., priority 2021, published 2025):
Read-outs that look alike come from different tables or passages of the source.

Legend:
Assay in all cases: Cell proliferation inhibition, CellTiter-Glo
Format in all cases: cell-based
[1] = biological target: Ba/F3-FL-EGFR (L858R) (Homo sapiens, UniProt P00533, L858R, cells depend on it); details: 72 hours, read-out: Cell half-maximal inhibition concentration IC50 Ba/F3-FL-EGFR (L858R)
Experimental: (§1) AdenosineTri-Phosphate (ATP) is an energy carrier shared by various life activities in nature, and is the smallest unit of energy storage and transfer. The CellTiter-Glo™ living cell assay kit uses luciferase as a detector, and luciferase requires the participation of ATP in the process of luminescence. CellTiter-Glo™ reagent is added to a cell culture medium, and the luminescence value is measured. The light signal is directly proportional to the amount of ATP in the system, and ATP is positively correlated with the number of living cells. Therefore, cell proliferation can be detected by detecting ATP content with the CellTiter-Glo kit. In this assay, the cell lines were Ba/F3-FL-EGFR (L858R/T790M/C797S), Ba/F3-FL-EGFR (WT), Ba/F3-FL-EGFR (L858R), Ba/F3-FL-EGFR (del19-S752-I759), Ba/F3-FL-EGFR (del19-E746-A750/T790M/C797S), Ba/F3-FL-EGFR (L858R/T790M), Ba/F3-FL-EGFR (del19-E746-A750/T790M), Ba/F3-TEL-EGFR (L858R/C797S), Ba/F3-FL-EGFR (del19-E746-A750/C797S) stably transfected cell lines.
(§2) The cell lines were cultured in an incubator at 37° C. and 5% CO2. The cells were periodically passaged, and cells in logarithmic growth phase were taken for plating.
(§3) a) DMSO was used to prepare a 10 mM solution of the compound to be tested, and then the compound to be tested was diluted to 0.3 or 1 mM with DMSO.
(§4) b) Preparation of 1000× compound storage plate (tube): DMSO was used to dilute by 3-fold gradient from the highest concentration to the lowest concentration, with a total of 9 concentrations.
(§5) c) Preparation of 20× compound working solution: 49 μL of cell culture medium was added to a flat-bottomed 96-well transparent drug plate, and 1 μL of compound was pipetted from the 1000× compound storage plate to the cell culture medium of the 96-well transparent drug plate. 1 μL of DMSO was added to the vehicle control. After adding compound or DMSO, the well content was mixed to uniform by aspiration and expelling with pipette.
(§6) a) Cells were stained with trypan blue and viable cells were counted. The cell viability rate was required to be above 90%.
(§7) b) 95 μL of cell suspension (2000 cells/well) was added to each well of the compound detection cell plate, and culture medium without cells (containing 0.1% DMSO) was added to the Min control well.
(§8) c) Dosing in the compound detection cell plate: 5 μL of 20× compound working solution was added to the cell culture plate. 5 μL of DMSO-cell culture mixture was added to the Max control. The final concentration of DMSO was 0.1%.
(§9) d) The culture plate was incubated in an incubator at 37° C., 5% CO2 for 72 hours.
(§10) The following steps were performed according to the instruction of Promega CellTiter-Glo luminescence cell viability detection kit (Promega-G7573). • a) The CellTiter-Glo buffer was thawed and allowed to stand to reach room temperature; • b) CellTiter-Glo substrate was allowed to stand to reach room temperature; • c) CellTiter-Glo buffer was added to CellTiter-Glo substrate in a bottle to dissolve the substrate to formulate CellTiter-Glo working solution; • d) The working solution was vortexed slowly for fully dissolution; • e) The cell culture plates were taken out and allowed to stand for 10 minutes to equilibrate to room temperature; • f) 50 μL (equal to half the volume of cell culture solution in each well) of Cell Titer-Glo working solution was added into each well. • g) The culture plates were shaken on an orbital shaker for 2 minutes to induce cell lysis; • h) The culture plates were left at room temperature for 10 minutes to stabilize the luminescence signal; • i) The luminous signal was detected on the PerkinElmer EnVision®2105 plate reader.
(§11) By PerkinElmer EnVision®2105 reading, the corresponding […] value RLU for each well was yielded.
(§12) Cell proliferation inhibition rate (Inhibition Rate) data were processed using the following formula:
(§13) Inhibition Rate (Inh %)=100−(RLUDrug−RLUMin)/(RLUMax−RLUMin)*100%. […]

[2] = biological target: Ba/F3-FL-EGFR (L858R/T790M) (Homo sapiens, UniProt P00533, T790M/L858R, cells depend on it)
Experimental: as §1, §2, §3, §4, §5, §6, §7, §8, §9, §10, §11, §12, §13

[3] = biological target: Ba/F3-FL-EGFR (WT) (Homo sapiens, UniProt P00533)
Experimental: as §1, §2, §3, §4, §5, §6, §7, §8, §9, §10, §11, §12, §13

[4] = biological target: Ba/F3-FL-EGFR (del19-E746-A750/T790M) (Homo sapiens, UniProt P00533, DEL746-750/T790M, cells depend on it)
Experimental: as §1, §2, §3, §4, §5, §6, §7, §8, §9, §10, §11, §12, §13

[5] = biological target: Ba/F3-FL-EGFR (del19-E746-A750/T790M/C797S) (Homo sapiens, UniProt P00533, DEL746-750/T790M/C797S, cells depend on it); details: 72 hours, read-out: Cell half-maximal inhibition concentration IC50 Ba/F3-FL-EGFR (del19-E746-A750/T790M/C797S)
Experimental: as §1, §2, §3, §4, §5, §6, §7, §8, §9, §10, §11, §12, §13

[6] = biological target: Ba/F3-FL-EGFR (del19-S752-I759) (Homo sapiens, UniProt P00533, DEL752-759, cells depend on it); details: 72 hours, read-out: Cell half-maximal inhibition concentration IC50 Ba/F3-FL-EGFR (del19-S752-I759)
Experimental: as §1, §2, §3, §4, §5, §6, §7, §8, §9, §10, §11, §12, §13

[7] = biological target: T1, Ba/F3-TEL-EGFR (L858R/C797S) (Homo sapiens, UniProt P00533, C797S/L858R, cells depend on it)
T1 construct: fused on or other part: TEL (ETV6) N-terminal oligomerising part fused to the EGFR kinase part; P41212 (Transcription factor ETV6)
Experimental: as §1, §2, §3, §4, §5, §6, §7, §8, §9, §10, §11, §12, §13

[8] = 72 hours, read-out: Cell half-maximal inhibition concentration IC50 Ba/F3-FL-EGFR (L858R/T790M)
[9] = 72 hours, read-out: Cell half-maximal inhibition concentration IC50 Ba/F3-FL-EGFR (WT)
[10] = 72 hours, read-out: Cell half-maximal inhibition concentration IC50 Ba/F3-FL-EGFR (del19-E746-A750/T790M)
[11] = 72 hours, read-out: Cell half-maximal inhibition concentration IC50 Ba/F3-TEL-EGFR (L858R/C797S)

Sequence of Ba/F3-FL-EGFR (L858R/T790M) (P00533 whole entry T790M/L858R): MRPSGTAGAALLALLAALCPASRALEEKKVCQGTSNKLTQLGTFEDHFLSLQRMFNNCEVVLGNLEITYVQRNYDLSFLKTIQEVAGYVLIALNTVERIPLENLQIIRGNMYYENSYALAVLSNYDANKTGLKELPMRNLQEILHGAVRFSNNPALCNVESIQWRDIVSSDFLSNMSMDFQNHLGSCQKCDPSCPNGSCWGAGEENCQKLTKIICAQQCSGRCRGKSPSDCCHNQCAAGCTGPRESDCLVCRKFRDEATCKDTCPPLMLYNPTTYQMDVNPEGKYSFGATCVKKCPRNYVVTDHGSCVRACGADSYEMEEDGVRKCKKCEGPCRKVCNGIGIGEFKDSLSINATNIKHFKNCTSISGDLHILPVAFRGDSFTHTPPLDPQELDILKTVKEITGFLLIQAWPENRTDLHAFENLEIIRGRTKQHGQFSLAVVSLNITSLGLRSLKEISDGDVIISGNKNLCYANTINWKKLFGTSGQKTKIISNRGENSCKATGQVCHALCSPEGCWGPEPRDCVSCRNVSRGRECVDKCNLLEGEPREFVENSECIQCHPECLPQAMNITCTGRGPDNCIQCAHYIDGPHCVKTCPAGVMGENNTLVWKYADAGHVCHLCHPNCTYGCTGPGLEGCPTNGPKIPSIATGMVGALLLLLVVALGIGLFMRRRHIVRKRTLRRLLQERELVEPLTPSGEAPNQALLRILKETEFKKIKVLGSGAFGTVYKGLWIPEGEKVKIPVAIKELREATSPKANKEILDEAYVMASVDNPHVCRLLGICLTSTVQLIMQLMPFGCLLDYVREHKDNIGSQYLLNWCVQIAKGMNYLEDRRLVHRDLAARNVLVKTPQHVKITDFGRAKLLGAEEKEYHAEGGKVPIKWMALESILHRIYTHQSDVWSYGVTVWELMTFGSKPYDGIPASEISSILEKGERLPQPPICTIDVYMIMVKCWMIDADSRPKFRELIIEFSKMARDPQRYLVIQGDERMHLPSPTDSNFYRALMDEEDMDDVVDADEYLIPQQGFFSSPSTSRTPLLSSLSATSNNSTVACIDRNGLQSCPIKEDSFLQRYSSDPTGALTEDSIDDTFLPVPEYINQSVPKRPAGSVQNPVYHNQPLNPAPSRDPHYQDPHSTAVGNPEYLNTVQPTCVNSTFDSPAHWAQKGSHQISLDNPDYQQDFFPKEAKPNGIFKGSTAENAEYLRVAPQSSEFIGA
Sequence of Ba/F3-FL-EGFR (WT) (P00533 whole entry, change not shown): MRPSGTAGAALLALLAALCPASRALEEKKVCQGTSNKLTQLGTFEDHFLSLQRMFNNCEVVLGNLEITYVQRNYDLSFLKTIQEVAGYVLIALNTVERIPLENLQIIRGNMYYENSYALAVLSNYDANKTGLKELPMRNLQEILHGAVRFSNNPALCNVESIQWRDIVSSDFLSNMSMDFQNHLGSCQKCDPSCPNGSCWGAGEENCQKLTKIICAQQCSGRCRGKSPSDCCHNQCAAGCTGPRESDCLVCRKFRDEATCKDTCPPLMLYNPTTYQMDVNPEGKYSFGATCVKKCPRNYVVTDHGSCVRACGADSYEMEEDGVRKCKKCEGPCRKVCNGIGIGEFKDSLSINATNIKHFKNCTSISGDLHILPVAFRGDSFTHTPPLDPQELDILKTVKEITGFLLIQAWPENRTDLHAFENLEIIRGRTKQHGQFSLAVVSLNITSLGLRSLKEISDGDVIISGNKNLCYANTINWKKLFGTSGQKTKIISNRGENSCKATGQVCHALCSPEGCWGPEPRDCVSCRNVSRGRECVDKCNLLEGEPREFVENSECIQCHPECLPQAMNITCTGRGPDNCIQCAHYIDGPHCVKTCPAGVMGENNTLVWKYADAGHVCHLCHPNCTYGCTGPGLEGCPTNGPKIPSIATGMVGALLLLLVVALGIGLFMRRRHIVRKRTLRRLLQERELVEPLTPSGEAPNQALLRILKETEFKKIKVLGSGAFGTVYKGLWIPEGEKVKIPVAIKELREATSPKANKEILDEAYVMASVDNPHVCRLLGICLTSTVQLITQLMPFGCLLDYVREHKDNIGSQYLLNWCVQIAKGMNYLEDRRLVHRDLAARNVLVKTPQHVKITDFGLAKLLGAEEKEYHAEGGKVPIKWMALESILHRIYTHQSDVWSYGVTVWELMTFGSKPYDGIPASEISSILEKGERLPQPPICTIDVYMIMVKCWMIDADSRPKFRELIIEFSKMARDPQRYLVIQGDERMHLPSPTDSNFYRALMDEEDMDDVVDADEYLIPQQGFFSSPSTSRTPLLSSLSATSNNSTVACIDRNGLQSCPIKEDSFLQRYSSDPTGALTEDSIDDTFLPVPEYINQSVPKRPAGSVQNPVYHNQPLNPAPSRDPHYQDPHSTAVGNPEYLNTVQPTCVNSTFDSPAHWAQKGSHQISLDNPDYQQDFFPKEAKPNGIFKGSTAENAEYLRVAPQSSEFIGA
Sequence of Ba/F3-FL-EGFR (del19-E746-A750/T790M) (P00533 with tags, fused parts or gaps DEL746-750/T790M): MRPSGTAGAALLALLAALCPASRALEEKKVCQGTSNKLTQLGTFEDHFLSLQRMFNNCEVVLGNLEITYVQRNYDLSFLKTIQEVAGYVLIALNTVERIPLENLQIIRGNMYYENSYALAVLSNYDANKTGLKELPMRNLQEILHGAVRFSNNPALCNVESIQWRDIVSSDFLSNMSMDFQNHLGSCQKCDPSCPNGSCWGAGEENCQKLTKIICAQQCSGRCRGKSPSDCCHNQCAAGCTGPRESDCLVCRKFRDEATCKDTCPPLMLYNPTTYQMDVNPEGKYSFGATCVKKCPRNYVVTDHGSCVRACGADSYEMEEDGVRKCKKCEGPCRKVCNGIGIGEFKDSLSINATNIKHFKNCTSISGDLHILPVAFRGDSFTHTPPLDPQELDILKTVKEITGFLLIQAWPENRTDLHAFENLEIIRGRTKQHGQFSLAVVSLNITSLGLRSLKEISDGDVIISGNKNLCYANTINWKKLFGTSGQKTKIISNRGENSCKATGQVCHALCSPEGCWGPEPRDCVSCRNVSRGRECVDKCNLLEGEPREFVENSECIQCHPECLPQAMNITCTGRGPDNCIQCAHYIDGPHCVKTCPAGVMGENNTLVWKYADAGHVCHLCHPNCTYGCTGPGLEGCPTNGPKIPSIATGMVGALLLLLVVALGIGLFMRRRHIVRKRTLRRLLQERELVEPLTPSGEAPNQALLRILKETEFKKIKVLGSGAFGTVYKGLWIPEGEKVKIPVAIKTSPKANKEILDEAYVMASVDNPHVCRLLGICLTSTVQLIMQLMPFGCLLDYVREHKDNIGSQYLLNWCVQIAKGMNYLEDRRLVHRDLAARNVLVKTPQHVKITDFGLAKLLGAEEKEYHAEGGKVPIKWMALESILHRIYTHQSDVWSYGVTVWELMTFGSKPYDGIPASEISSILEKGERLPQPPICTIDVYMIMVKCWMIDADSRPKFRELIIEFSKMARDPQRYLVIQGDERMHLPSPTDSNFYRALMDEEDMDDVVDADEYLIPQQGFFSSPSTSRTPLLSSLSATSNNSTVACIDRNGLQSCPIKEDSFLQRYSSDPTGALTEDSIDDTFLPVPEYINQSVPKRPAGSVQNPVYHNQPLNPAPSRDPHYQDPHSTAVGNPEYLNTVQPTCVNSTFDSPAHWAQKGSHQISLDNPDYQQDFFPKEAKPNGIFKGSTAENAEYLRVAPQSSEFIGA
Sequence of Ba/F3-FL-EGFR (L858R) (P00533 whole entry L858R): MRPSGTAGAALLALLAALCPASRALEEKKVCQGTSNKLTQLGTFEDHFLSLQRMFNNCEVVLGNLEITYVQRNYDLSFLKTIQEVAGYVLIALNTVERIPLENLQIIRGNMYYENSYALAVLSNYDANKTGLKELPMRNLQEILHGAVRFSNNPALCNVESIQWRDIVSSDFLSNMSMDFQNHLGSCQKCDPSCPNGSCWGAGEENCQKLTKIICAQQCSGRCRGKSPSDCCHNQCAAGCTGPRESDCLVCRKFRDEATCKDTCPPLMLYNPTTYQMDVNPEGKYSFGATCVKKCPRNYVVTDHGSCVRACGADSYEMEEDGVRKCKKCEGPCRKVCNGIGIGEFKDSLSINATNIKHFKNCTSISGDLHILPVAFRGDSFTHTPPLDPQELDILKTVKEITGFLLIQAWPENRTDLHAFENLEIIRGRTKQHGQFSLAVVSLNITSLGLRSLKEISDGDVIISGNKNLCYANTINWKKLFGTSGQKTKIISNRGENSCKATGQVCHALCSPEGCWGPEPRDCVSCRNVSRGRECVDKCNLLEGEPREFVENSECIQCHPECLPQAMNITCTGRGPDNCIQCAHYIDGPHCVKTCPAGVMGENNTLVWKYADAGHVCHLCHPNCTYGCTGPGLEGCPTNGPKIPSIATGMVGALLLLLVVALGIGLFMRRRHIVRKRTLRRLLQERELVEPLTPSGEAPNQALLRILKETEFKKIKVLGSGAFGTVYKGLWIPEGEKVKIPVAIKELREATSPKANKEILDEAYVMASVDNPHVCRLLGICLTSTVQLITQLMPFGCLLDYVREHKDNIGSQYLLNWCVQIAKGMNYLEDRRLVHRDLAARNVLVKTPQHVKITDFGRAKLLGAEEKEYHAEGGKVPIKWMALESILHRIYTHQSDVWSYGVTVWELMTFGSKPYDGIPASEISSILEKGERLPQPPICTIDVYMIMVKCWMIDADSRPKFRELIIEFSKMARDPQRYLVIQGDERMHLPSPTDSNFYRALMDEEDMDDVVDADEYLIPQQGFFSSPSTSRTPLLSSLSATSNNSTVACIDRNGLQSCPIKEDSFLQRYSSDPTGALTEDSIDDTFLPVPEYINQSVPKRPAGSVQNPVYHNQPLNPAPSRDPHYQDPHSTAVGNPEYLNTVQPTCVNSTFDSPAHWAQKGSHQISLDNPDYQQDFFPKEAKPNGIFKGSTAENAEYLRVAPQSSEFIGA

Row | SMILES | GI50 [1] [nM] | GI50 [2, 8] [nM] | GI50 [3, 9] [nM] | GI50 [4, 10] [nM] | GI50 [5] [nM] | GI50 [6] [nM] | GI50 [7, 11] [nM] | GI50 ([2]; read-out: Cell half-maximal inhibition concentration IC50 Ba/F3-FL-EGFR (L858R/T790M), 72 hours) [nM] | GI50 ([3]; read-out: Cell half-maximal inhibition concentration IC50 Ba/F3-FL-EGFR (WT), 72 hours) [nM] | GI50 ([4]; read-out: Cell half-maximal inhibition concentration IC50 Ba/F3-FL-EGFR (del19-E746-A750/T790M), 72 hours) [nM] | GI50 ([7]; read-out: Cell half-maximal inhibition concentration IC50 Ba/F3-TEL-EGFR (L858R/C797S), 72 hours) [nM]
1 | Cc1cc2cc(n1)-c1cnn(C)c1OCCC[C@@H](C)CN1/C(=N/C2=O)Nc2ccc(N=S(C)(C)=O)c(Cl)c21 [WX-019] | 42.2 | 16.8 | 303 | 2.9 | 1.3 | 15.6 | 7.3 | – | – | – | –
2 | Cc1cc2cc(n1)-c1cnn(C)c1OCCC[C@@H](C)CN1/C(=N/C2=O)Nc2ccc(N=S3(=O)CCOCC3)cc21 [WX-013] | – | – | – | – | – | – | – | 12.1 | 123 | 0.6 | 3.1
3 | Cc1cc2cc(n1)-c1cnn(C)c1OCCC[C@@H](C)CN1/C(=N/C2=O)Nc2ccc(N=S(C)(C)=O)cc21 [WX-006] | 18.6 | 12.9 | 111 | 0.8 | 0.6 | 15.4 | 3.1 | – | – | – | –
4 | Cc1cc2cc(n1)-c1cnn(C)c1OCCC[C@@H](C)CN1/C(=N/C2=O)Nc2ccc(N=S3(=O)CCCC3)cc21 [WX-010 (trifluoroacetate)] | 14 | 10.5 | 86 | 0.4 | 0.8 | 11.2 | 3 | – | – | – | –
5 | Cc1cc2cc(n1)-c1cnn(C)c1OC[C@H]1CC[C@H](C1)CN1/C(=N/C2=O)Nc2ccc(N=S(C)(C)=O)cc21 (single isomer, unassigned) [WX-027A] | 39.6 | 14.3 | 295 | 1.9 | 1.2 | 12.9 | 5.2 | – | – | – | –
